Results from patent US6350720B2, “Substituted phenyltriazolin(THI)ones and their use as herbicides” (Bayer Aktiengesellschaft, priority 1997, dated 2002).

melting point: 179 °C
SMILES: CCS(=O)(=O)N(C(C)=O)c1cc(-n2nc(C(F)(F)F)n(C)c2=O)c(F)cc1C#N
